For one experiment, the target named is LSD1 (Homo sapiens, UniProt O60341). Put plainly: LSD1 10-dose IC50 fluorescence coupling enzyme assay (HRP/Amplex Red, resorufin). Conditions: 10 M histone H3(1-21)K4me2 peptide substrate; 3-fold serial dilution in duplicate starting at 100 μM. The format is biochemical. As to the method: Compounds were tested in a 10-dose IC50 mode fluorescence coupling enzyme assay with 3-fold serial dilution in duplicate starting at 100 μM. The production of FAD-dependent H2O2 as a result of demethylase activity of LSD1 on […] histone H3(1-21)K4me2 peptide substrate was measured by coupling with HRP and Amplex Red to yield resorufin (fluorescence measured at Ex/Em=535/590 nm on EnVision, Perkin Elmer).

For the next experiment, the system named is MV4;11 cells. Put plainly: Cell Titer-Glo Luminescent Cell Viability Assay, cell growth inhibition against MV4;11 cells. In kind it is cell-based. Conditions: Homo sapiens. On the procedure:
Cell growth inhibition against MV4;11 cells was confirmed for the synthetic compounds. The Cell Titer-Glo Luminescent Cell Viability Assay (Promega, USA) was used to determine the number of viable cells in culture based on quantitation of the ATP present, which signals the presence of metabolically active cells. This assay was run in a 96-well plate format arrayed in a 10-point dose curve, ranging from 0 to 50 μM with 4-fold dilutions for each compound. Cells are seeded on Day 0 at 3750 cells per well. At Day 5, a portion of each well is assayed for viability according to the Cell Titer-Glo protocol. Briefly, cells/plates were centrifuged at 1100×g for 5 minutes. 100 μL of media was removed from each well and replaced with 100 μL of CellTiter-Glo. The plates were shaken at room temperature for 10 minutes and measured on a luminescence plate reader. Another portion of each well from the Day 5 plate is used to seed a new 96 plate containing fresh compound and media set up in the equivalent 10-point dose curve array in order to continue the cell growth inhibition assay for another 5 days. A final timepoint is collected at Day 10 using the Cell Titer-Glo protocol. Luminescence was detected on an EnVision® Multilabel Plate Reader (Perkin Elmer, Waltham, Mass.) and IC50 determination was made using Graph Pad Prism software.
A general note: ATP-based viability assays read luminescence as a measure of living cells.

Setting [1] is: MV4-11, 120 h, MV4;11 cells, Day 5, 10-point dose curve 0 to 50 μM, read-out: Cell Titer Glo IC50 (5 d).
The mark [2] stands for this setting: MV4-11, MV4;11 cells, Day 10 (re-seeded at Day 5 with fresh compound), 10-point dose curve 0 to 50 μM, read-out: Cell Titer Glo IC50 (10 d).

Our source for the IC50 values is patent publication US20260085082A1, “KDM1A INHIBITORS FOR THE TREATMENT OF DISEASE” (Imago Biosciences, Inc., priority 2022, published 2026).

The structures appear in SMILES notation. Like-named read-outs stand apart in the source and are kept apart here. Bounds are passed on as bounds.

The IC50 is the point on the concentration scale where inhibition reaches its midpoint.

Turning to `COC1CCN(c2ccc(-n3nc(C(=O)N4CCC[C@H](N)C4)cc3-c3ccc(C#N)c(F)c3)cc2)CC1` [Example 63, (S)-4-(3-(3-aminopiperidine-1-carbonyl)-1-(4-(4-methoxypiperidin-1-yl)phenyl)-1H-pyrazol-5-yl)-2-fluorobenzonitrile 2,2,2-trifluoroacetate], the results for the IC50 against LSD1, with MV4;11 cells (setting [1]) and with MV4;11 cells (setting [2]) were under 500 nM, 500 to 1000 nM and under 500 nM, respectively.

On to `COc1ccc(-n2nc(C(=O)NC3CCNC3)cc2-c2ccc(C#N)c(F)c2)cc1` (stereo not drawn) [Example 21, 5-(4-Cyano-3-fluorophenyl)-1-(4-methoxyphenyl)-N-(pyrrolidin-3-yl)-1H-pyrazole-3-carboxamide], for which the half-maximal inhibitory concentration (IC50) fell in the range of 500 to 1000 nM at LSD1 and 1000 to 10000 nM with MV4;11 cells (setting [1]).

On to `COc1ccc(Cn2nc(C(=O)N3CCC[C@@H](N)C3)cc2-c2ccc(C#N)c(F)c2)cc1` [Example 33, (R)-4-(3-(3-aminopiperidine-1-carbonyl)-1-(4-methoxybenzyl)-1H-pyrazol-5-yl)-2-fluorobenzonitrile 2,2,2-trifluoroacetate], for which the IC50 against LSD1 and with MV4;11 cells (setting [1]) was under 500 nM in each case.

Take `COc1ccc(-n2nc(C(=O)N3CCCC(NC(=N)N)C3)cc2-c2ccc(C#N)c(F)c2)cc1` (stereo not drawn) [Example 29, 1-(1-(5-(4-Cyano-3-fluorophenyl)-1-(4-methoxyphenyl)-1H-pyrazole-3-carbonyl)piperidin-3-yl)guanidine 2,2,2-trifluoroacetate]: the IC50 at LSD1 was 1000 to 10000 nM; with MV4;11 cells (setting [1]), over 10000 nM.

On to `N#Cc1ccc(-c2cc(C(=O)N3CCC[C@@H](N)C3)nn2-c2ccc(N3CCCC3)cc2)cc1F` [Example 62, (R)-4-(3-(3-aminopiperidine-1-carbonyl)-1-(4-(pyrrolidin-1-yl)phenyl)-1H-pyrazol-5-yl)-2-fluorobenzonitrile 2,2,2-trifluoroacetate], for which the half-maximal inhibitory concentration (IC50) against LSD1 and in the experiment on MV4;11 cells (setting [2]) was under 500 nM each time.

For the compound `COc1ccc(-n2nc(C(=O)N3CCCC(N)C3)cc2-c2ccc(C#N)cc2)cc1` (stereo not drawn) [Example 2, 4-(3-(3-Aminopiperidine-1-carbonyl)-1-(4-methoxyphenyl)-1H-pyrazol-5-yl)benzonitrile], the values for the concentration for half-maximal inhibition (IC50) on LSD1 and with MV4;11 cells (setting [1]) were under 500 nM and 500 to 1000 nM, respectively.

For the compound `Cc1ccc(-n2nc(-c3ccc(C#N)c(F)c3)cc2C(=O)NC2CCNC2)cc1` (stereo not drawn) [Example 15, 3-(4-Cyano-3-fluorophenyl)-N-(pyrrolidin-3-yl)-1-(p-tolyl)-1H-pyrazole-5-carboxamide], the figures for the IC50 at LSD1 and in the experiment with MV4;11 cells (setting [1]) were 500 to 1000 nM and 1000 to 10000 nM, respectively.

In the case of `CN1CCN(c2ccc(-n3nc(C(=O)N4CCC[C@@H](N)C4)cc3-c3ccc(C#N)c(F)c3)cc2)CC1` [Example 60, (R)-4-(3-(3-aminopiperidine-1-carbonyl)-1-(4-(4-methylpiperazin-1-yl)phenyl)-1H-pyrazol-5-yl)-2-fluorobenzonitrile], the IC50 on LSD1 was under 500 nM; in the experiment with MV4;11 cells (setting [1]), 500 to 1000 nM; with MV4;11 cells (setting [2]) it was under 500 nM.

Regarding `COc1ccc(-n2nc(NC(=O)[C@H]3CCC[C@H](N)C3)cc2-c2ccc(C#N)c(F)c2)cc1` [Example 90, (1S,3S)-3-amino-N-(5-(4-cyano-3-fluorophenyl)-1-(4-methoxyphenyl)-1H-pyrazol-3-yl)cyclohexane-1-carboxamide 2,2,2-trifluoroacetate], the IC50 against LSD1 was under 500 nM; with MV4;11 cells (setting [1]), 1000 to 10000 nM.

On to `COc1ccc(-n2nc(C(=O)N3CCCC(N)C3)cc2-c2ccc(C#N)c(F)c2)cc1` (stereo not drawn) [Example 16, 4-(3-(3-Aminopiperidine-1-carbonyl)-1-(4-methoxyphenyl)-1H-pyrazol-5-yl)-2-fluorobenzonitrile], for which the 50% inhibitory concentration (IC50) against LSD1 and in the experiment on MV4;11 cells (setting [1]) was under 500 nM in each case.

Regarding `Cc1ccc(-n2nc(-c3ccc(C#N)c(F)c3)cc2C(=O)N2CCCC(N)C2)cc1` (stereo not drawn) [Example 14, 4-(5-(3-Aminopiperidine-1-carbonyl)-1-(p-tolyl)-1H-pyrazol-3-yl)-2-fluorobenzonitrile], the concentration for half-maximal inhibition (IC50) was under 500 nM against LSD1 and 1000 to 10000 nM in the experiment on MV4;11 cells (setting [1]).

Consider `COc1ccc(-n2nc(-c3ccc(C#N)c(F)c3)cc2C(=O)N2CCCC(N)C2)cc1` (stereo not drawn) [Example 17, 4-(5-(3-Aminopiperidine-1-carbonyl)-1-(4-methoxyphenyl)-1H-pyrazol-3-yl)-2-fluorobenzonitrile], for which the results for the half-maximal inhibitory concentration (IC50) on LSD1 and in the experiment with MV4;11 cells (setting [1]) were under 500 nM and 1000 to 10000 nM, respectively.

Consider `CN1CCN(c2ccc(-n3nc(C(=O)N4CCC[C@H](N)C4)cc3-c3ccc(C#N)c(F)c3)cc2)CC1` [Example 59, (S)-4-(3-(3-aminopiperidine-1-carbonyl)-1-(4-(4-methylpiperazin-1-yl)phenyl)-1H-pyrazol-5-yl)-2-fluorobenzonitrile], for which the IC50 was under 500 nM against LSD1, 1000 to 10000 nM with MV4;11 cells (setting [1]) and under 500 nM in the experiment with MV4;11 cells (setting [2]).

As to `COc1ccc(-n2nc(NC(=O)[C@@H]3CCC[C@@H](N)C3)cc2-c2ccc(C#N)c(F)c2)cc1` [Example 89, (1R,3R)-3-amino-N-(5-(4-cyano-3-fluorophenyl)-1-(4-methoxyphenyl)-1H-pyrazol-3-yl)cyclohexane-1-carboxamide 2,2,2-trifluoroacetate], the half-maximal inhibitory concentration (IC50) against LSD1 is under 500 nM; with MV4;11 cells (setting [1]), 1000 to 10000 nM.

In the case of `COc1ccc(-n2nc(C(=O)N3CC(N)C3)cc2-c2ccc(C#N)c(F)c2)cc1` [Example 31, 4-(3-(3-Aminoazetidine-1-carbonyl)-1-(4-methoxyphenyl)-1H-pyrazol-5-yl)-2-fluorobenzonitrile 2,2,2-trifluoroacetate], the IC50 against LSD1 and in the experiment with MV4;11 cells (setting [1]) was over 10000 nM each time.

As for `COc1ccc(-n2nc(C(=O)NC3CCCC(N)C3)cc2-c2ccc(C#N)c(F)c2)cc1` (stereo not drawn) [Example 20, N-(3-aminocyclohexyl)-5-(4-cyano-3-fluorophenyl)-1-(4-methoxyphenyl)-1H-pyrazole-3-carboxamide 2,2,2-trifluoroacetate], the half-maximal inhibitory concentration (IC50) against LSD1 and in the experiment with MV4;11 cells (setting [1]) was 1000 to 10000 nM throughout.

As for `COc1ccc(-n2ncc(C(=O)N3CCCC(N)C3)c2-c2ccc(C#N)cc2)cc1` (stereo not drawn) [Example 88, 4-(4-(3-aminopiperidine-1-carbonyl)-1-(4-methoxyphenyl)-1H-pyrazol-5-yl)benzonitrile], the IC50 against LSD1 and in the experiment with MV4;11 cells (setting [1]) was over 10000 nM in each case.

Take `Cc1ccc(-n2nc(C(=O)NC3CCNC3)cc2-c2ccc(C#N)c(F)c2)cc1` (stereo not drawn) [Example 10, 5-(4-Cyano-3-fluorophenyl)-N-(pyrrolidin-3-yl)-1-(p-tolyl)-1H-pyrazole-3-carboxamide]: the half-inhibitory concentration (IC50) against LSD1 was 500 to 1000 nM; with MV4;11 cells (setting [1]), 1000 to 10000 nM.

On to `Cc1ccc(-n2nc(C(=O)N3CCCC(CN)C3)cc2-c2ccc(C#N)c(F)c2)cc1` (stereo not drawn) [Example 7, 4-(3-(3-(Aminomethyl)piperidine-1-carbonyl)-1-(p-tolyl)-1H-pyrazol-5-yl)-2-fluorobenzonitrile], for which the results for the IC50 on LSD1 and in the experiment on MV4;11 cells (setting [1]) were under 500 nM and 1000 to 10000 nM, respectively.

As for `COc1ccc(-n2nc(NC(=O)[C@H]3CC[C@H](N)CC3)cc2-c2ccc(C#N)c(F)c2)cc1` [Example 91, (1R,4R)-4-Amino-N-(5-(4-cyano-3-fluorophenyl)-1-(4-methoxyphenyl)-1H-pyrazol-3-yl)cyclohexane-1-carboxamide 2,2,2-trifluoroacetate], the half-inhibitory concentration (IC50) against LSD1 and in the experiment on MV4;11 cells (setting [1]) was 1000 to 10000 nM throughout.

Take `Cc1ccc(-n2nc(C(=O)N3CCC(N)CC3)cc2-c2ccc(C#N)c(F)c2)cc1` [Example 9, 4-(3-(4-Aminopiperidine-1-carbonyl)-1-(p-tolyl)-1H-pyrazol-5-yl)-2-fluorobenzonitrile]: the IC50 was under 500 nM against LSD1 and 1000 to 10000 nM with MV4;11 cells (setting [1]).
